Legend:
[1] = test system: NCI-H460 human lung carcinoma cells; experiment: Cell proliferation assay (MTT), NCI-H460; assay type: cell-based
Procedure: (§1) Cells were seeded into 96-well plates at densities of 1500 cells per well for OVCAR-8, 1900 for NCI-H460, and 4000 for CCD-18Co. After 24 h of incubation, they were treated for 72 h with different concentrations of the compounds (concentration range: 0.01 to 6 μM for OVCAR-8; 0.05 to 2 μM for NCI-H460; and 0.07 to 70 μM for CCD-18Co cells). When indicated, cells were also incubated with 30 µM of the ROS scavenger Manganese (III) 5,10,15,20-tetrakis (4-benzoic acid) porphyrin (MnTBAP) (Calbiochem, San Diego, CA, USA). Cell viability was measured using the MTT assay as previously described. The IC50 value corresponds to the concentration of the assayed compound that is required to inhibit the cell proliferation by 50%, and was calculated by linear interpolation from the obtained growth curves. All data are reported as the mean ± standard error (SE) calculated from at least three independent experiments with three replicates in each.

[2] = test system: OVCAR-8 human ovarian carcinoma cells; experiment: Cell proliferation assay (MTT), OVCAR-8; assay type: cell-based
Procedure: as §1

[3] = test system: CCD-18Co human colon fibroblasts; experiment: Cell proliferation assay (MTT), non-tumor CCD-18Co; assay type: cell-based; details: non-tumor cells, 72 h exposure, mean ± SE
Procedure: as §1

[4] = test system: MDA-MB-231 human breast carcinoma cells; experiment: Cytotoxicity on MDA-MB-231; assay type: cell-based
supercoiled pUC18 DNA = experiment: DNA interaction analysis by agarose gel electrophoresis; assay type: biochemical; details: highest concentrations, 24 h, 37 °C, with H2O2
Procedure: The interaction of DNA with the compounds was monitored in an agarose gel electrophoresis as previously described. […] Two other samples were included in the assays: a sample of pUC18 DNA alone as negative control and a sample of pUC18 DNA with 5 µg/mL cisplatin for comparison purposes. […] Gels were stained with ethidium bromide (1 µg/mL in TBE) for 15 min and DNA bands were visualized under UV light.

NCI-H460 cells [5] = experiment: Apoptosis analysis, Annexin V-Alexa Fluor 488/PI flow cytometry, NCI-H460; assay type: cell-based, human; details: NCI-H460, 0.64 µM, 72 h
Procedure: (§2) Quantitative analysis of apoptotic cell death caused by compound 10 treatment was carried out by flow cytometry using the Alexa Fluor 488 annexin V/PI Vybrant Apoptosis Assay Kit (Molecular Probes, Eugene, OR, USA) as previously described. Briefly, NCI-H460 cells (7 × 10^4 per well) and OVCAR-8 cells (8 × 10^4 per well) were seeded into 6-well plates and then treated with compound 10 (0.64 μM for NCI-H460 and 1.65 μM for OVCAR-8) for 72 h in serum starved medium. After treatment, we collected attached and floating cells, washed them in cold PBS and stained them for 15 min in the dark with Annexin V-Alexa Fluor 488 and propidium iodide (PI) at room temperature. Cells were analyzed using NovoCyte Flow Cytometer (ACEA Biosciences, San Diego, CA, USA) and NovoExpress software (ACEA Biosciences, San Diego, CA, USA). At least 10,000 cells within the gated region were analyzed.

OVCAR-8 cells [6] = experiment: Apoptosis analysis, Annexin V-Alexa Fluor 488/PI flow cytometry, OVCAR-8; assay type: cell-based, human; details: OVCAR-8, 1.65 µM, 72 h
Procedure: as §2

NCI-H460 cells [7] = experiment: Cell cycle phase analysis (PI flow cytometry), NCI-H460; assay type: cell-based, human; details: NCI-H460, 0.3 µM, 72 h
Procedure: (§3) NCI-H460 and OVCAR-8 cells were treated for 72 h with compound 10 (0.3 μM for NCI-H460 and 0.8 μM for OVCAR-8). Then, they were collected and fixed at −20 °C with 70% ethanol for at least 1 h. Fixed cells washed with cold PBS were resuspended in PBS at a cell density of 1–2 × 10^6 cells/mL, treated at 37 °C for 30 min with ribonuclease A (100 μg/mL) and PI (40 μg/mL) (Molecular Probes, Eugene, OR, USA), and analyzed by flow cytometric. At least 10,000 cells within the gated region were analyzed on a NovoCyte Flow Cytometer (ACEA Biosciences, San Diego, CA, USA). Cell cycle distribution was analyzed using NovoExpress software (ACEA Biosciences, San Diego, CA, USA).

OVCAR-8 cells [8] = experiment: Cell cycle phase analysis (PI flow cytometry), OVCAR-8; assay type: cell-based, human; details: OVCAR-8, 0.8 µM, 72 h
Procedure: as §3

NCI-H460 cells [9] = experiment: Flow cytometric analysis of ROS generation (carboxy-H2DCFDA), NCI-H460; assay type: cell-based, human; details: NCI-H460, 0.7, 1.5 or 3 µM, 48 or 72 h
Procedure: (§4) ROS generation after treatment with the compounds was analyzed using a carboxy-20, 70-dichlorodihydrofluorescein diacetate probe (carboxy-H2DCFDA) (Invitrogen, Waltham, MA). ROS species oxidize this molecule to green fluorescent dichlorofluorescein (DCF), allowing their detection inside the cells using a flow cytometer. A total of 24 h prior to treatments cells were seeded at 70,000 cells/well in 6-well plates in phenol red-free RPMI. Then, they were treated for 48 or 72 h at 37 °C with different concentrations of compound 10 (0.7, 1.5, or 3 μM for NCI-H460 cells and 2, 4.5, or 9 μM for OVCAR-8 cells) for 48 or 72 h at 37 °C. After treatments, cells were washed with PBS and incubated for 30 min at 37 °C in the dark with either 1 μM (NCI-H460 cells) or 0.5 μM (OVCAR-8 cells) carboxy-H2DCFDA diluted in PBS. Cells were then collected with phenol red-free trypsin and analyzed using a NovoCyte Flow cytometer. NovoExpress software (ACEA Biosciences, San Diego, CA, USA) was used to stablish the geometric mean fluorescence intensity of 10,000 cells.

OVCAR-8 cells [10] = experiment: Flow cytometric analysis of ROS generation (carboxy-H2DCFDA), OVCAR-8; assay type: cell-based, human; details: OVCAR-8, 2, 4.5 or 9 µM, 48 or 72 h
Procedure: as §4

MDA-MB-231 cells = experiment: Transwell cell migration assay; assay type: cell-based, human; details: 0.1 µM, 24, 48 or 72 h
Procedure: MDA-MB-231 cells were seeded into the upper chamber of a 24-well transwell insert (8 µm pore size; Sarstedt, Nümbrecht, Germany) at a density of 12,000 cells/0.5 mL RPMI 1640 medium with 0.5% FBS and treated with 0.1 µM compound 10 (corresponding to an IC20). The lower chamber was filled with 0.5 mL RPMI 1640 medium with 10% FBS as a chemoattractant. The cells on the upper side of the inserts were removed with a cotton swab after 24, 48, or 72 h of incubation at 37 °C. Cells that migrated to the lower side of the inserts were fixed for 30 min with 4% paraformaldehyde and stained for 20 min at room temperature with 0.2% crystal violet solution. Ten randomly selected fields at 200× magnification were counted using an Olympus CKX41 inverted microscope (Tokyo, Japan).

SMILES: CC#N.CC#N.CC#N.CC#N.Cc1cc(N=Cc2cccc(C)n2)c2c(c1)C1CC(O2)Oc2c(N=Cc3cccc(C)n3)cc(C)cc21.Cc1cc(N=Cc2cccc(C)n2)c2c(c1)C1CC(O2)Oc2c(N=Cc3cccc(C)n3)cc(C)cc21.F[B-](F)(F)F.F[B-](F)(F)F.F[B-](F)(F)F.F[B-](F)(F)F.[Fe+2].[Fe+2] [Compound 10, [Fe2(4)2(CH3CN)4](BF4)4]
- IC50 ([1]; 72 h exposure, MTT, mean ± SE): 640 ± 50 nM
- SI NCI-H460 (selectivity index) ([1]; ratio IC50 CCD-18Co / IC50 NCI-H460): 33.7
- IC50 ([2]; 72 h exposure, MTT, mean ± SE): 1650 ± 260 nM
- Cellular viability with vs without ROS scavenger MnTBAP ([2]; OVCAR-8, MTT, 30 µM MnTBAP): MnTBAP reduces the antiproliferative effect
- SI OVCAR-8 (selectivity index) ([2]; ratio IC50 CCD-18Co / IC50 OVCAR-8): 13.1
- IC50 [3]: 21600 ± 3180 nM
- IC50 ([4]; MDA-MB-231 cells): 250 nM
- fold lower IC50 than that described for cisplatin, MDA-MB-231 ([4]; cisplatin value from literature): about 250 fold
- IC20 ([4]; concentration used in migration assay, corresponding to an IC20): 100 nM
- Effect on pUC18 DNA in the presence of H2O2 at the highest concentrations (supercoiled pUC18 DNA): total DNA degradation
- percentage of cells that enter in apoptosis (early + late) (NCI-H460 cells [5]): about 82%
- Early apoptotic cells (%) (NCI-H460 cells [5]; serum starved medium): 13.72 ± 4.34%
- Late apoptotic cells (%) (NCI-H460 cells [5]; serum starved medium): 68.61 ± 3.04%
- Necrotic cells (%) (NCI-H460 cells [5]; serum starved medium): 1.29 ± 0.27%
- Viable cells (%) (NCI-H460 cells [5]; serum starved medium): 16.37 ± 2.32%
- percentage of cells that enter in apoptosis (early + late) (OVCAR-8 cells [6]): ~66%
- Early apoptotic cells (%) (OVCAR-8 cells [6]; serum starved medium): 36.12 ± 2.32%
- Late apoptotic cells (%) (OVCAR-8 cells [6]; serum starved medium): 30.82 ± 2.60%
- Necrotic cells (%) (OVCAR-8 cells [6]; serum starved medium): 1.27 ± 0.08%
- Viable cells (%) (OVCAR-8 cells [6]; serum starved medium): 31.79 ± 3.27%
- % G0/G1 (NCI-H460 cells [7]): 57.62%
- % G2/M (NCI-H460 cells [7]): 15.58%
- % S (NCI-H460 cells [7]): 21.71%
- % Sub-G1 (NCI-H460 cells [7]): 5.10%
- Effect on cell cycle phase distribution vs untreated cells (NCI-H460 cells [7]): do not show significant changes in the cell cycle phase distribution
- % G0/G1 (OVCAR-8 cells [8]): 41.91%
- % G2/M (OVCAR-8 cells [8]): 28.36%
- % S (OVCAR-8 cells [8]): 23.09%
- % Sub-G1 (OVCAR-8 cells [8]): 6.61%
- Effect on cell cycle phase distribution vs untreated cells (OVCAR-8 cells [8]): shift in the cell population from the G0/G1 phase to the S and G2/M phases
- ROS levels (fold-increase vs control) (NCI-H460 cells [9]): ROS levels rise with time and concentration
- ROS levels (fold-increase vs control) (OVCAR-8 cells [10]): ROS levels rise with time and concentration
- Migration of MDA-MB-231 cells (MDA-MB-231 cells): significantly reduces the migration

Source: PMC9781652, “Dinuclear Iron Complexes of Iminopyridine-Based Ligands as Selective Cytotoxins for Tumor Cells and Inhibitors of Cancer Cell Migration” (Pharmaceutics, 2022)
